Data as given in US10213433B2 (AbbVie Inc., priority 2010, dated 2019).

Biological target: Bcl-2 protein (Homo sapiens (Human), UniProt P10415)
Experiment: Bcl-2 binding TR-FRET (Time-Resolved Fluorescence-Resonance-Energy-Transfer) assay
Details: inhibition constant for binding to Bcl-2 protein
Source text: The smaller the Ki value, the greater is the binding affinity.

Chain of Bcl-2 protein (P10415 whole entry): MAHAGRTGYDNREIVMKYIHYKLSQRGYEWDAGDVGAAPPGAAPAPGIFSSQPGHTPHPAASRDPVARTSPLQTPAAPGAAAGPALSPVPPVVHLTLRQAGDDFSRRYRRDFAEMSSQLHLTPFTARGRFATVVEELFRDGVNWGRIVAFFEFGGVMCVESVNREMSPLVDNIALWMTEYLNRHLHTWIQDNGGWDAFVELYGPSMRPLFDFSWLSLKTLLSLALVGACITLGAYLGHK

SMILES	Ki
CC1(C)CCC(CN2CCN(c3ccc(C(=O)NS(=O)(=O)c4cnc(NC[C@H]5CC[C@](C)(O)CC5)c([N+](=O)[O-])c4)c(Oc4cnc5[nH]ccc5c4)c3)CC2)=C(c2ccc(Cl)cc2)C1 [Compound 376, 4-(4-{[2-(4-chlorophenyl)-4,4-dimethylcyclohex-1-en-1-yl]methyl}piperazin-1-yl)-N-[(6-{[(cis-4-hydroxy-4-methylcyclohexyl)methyl]amino}-5-nitropyridin-3-yl)sulfonyl]-2-(1H-pyrrolo[2,3-b]pyridin-5-yloxy)benzamide]	< 1 pM
COC1(C)CCC(c2ccc(Cl)cc2)=C(CN2CCN(c3ccc(C(=O)NS(=O)(=O)c4ccc(NC[C@H]5CC[C@@](C)(O)CC5)c([N+](=O)[O-])c4)c(Oc4cnc5[nH]ccc5c4)c3)CC2)C1 (stereo partly drawn) [Compound 377, 4-(4-{[2-(4-chlorophenyl)-5-methoxy-5-methylcyclohex-1-en-1-yl]methyl}piperazin-1-yl)-N-[(4-{[(trans-4-hydroxy-4-methylcyclohexyl)methyl]amino}-3-nitrophenyl)sulfonyl]-2-(1H-pyrrolo[2,3-b]pyridin-5-yloxy)benzamide]	< 1 pM
COC1(C)CCC(c2ccc(Cl)cc2)=C(CN2CCN(c3ccc(C(=O)NS(=O)(=O)c4ccc(NCC5CCOCC5)c([N+](=O)[O-])c4)c(Oc4cnc5[nH]ccc5c4)c3)CC2)C1 (stereo not shown) [Compound 378, 4-(4-{[2-(4-chlorophenyl)-5-methoxy-5-methylcyclohex-1-en-1-yl]methyl}piperazin-1-yl)-N-({3-nitro-4-[(tetrahydro-2H-pyran-4-ylmethyl)amino]phenyl}sulfonyl)-2-(1H-pyrrolo[2,3-b]pyridin-5-yloxy)benzamide]	< 1 pM

System: not listed separately
Experiment: log D at pH 7.4 by an HPLC method
Type: physicochemical
Details: not given
Source text: Table 2 below presents data for log D (a parameter related to lipophilicity) at pH 7.4, as determined by an HPLC method, for representative compounds.

chromatographic logD	log D	SMILES
5.37		CC1(C)CCC(CN2CCN(c3ccc(C(=O)NS(=O)(=O)c4ccc(NCC5CCOCC5)c([N+](=O)[O-])c4)c(Oc4cnc5[nH]ccc5c4)c3)CC2)=C(c2ccc(Cl)cc2)C1 [Compound 5, 4-(4-{[2-(4-chlorophenyl)-4,4-dimethylcyclohex-1-en-1-yl]methyl}piperazin-1-yl)-N-({3-nitro-4-[(tetrahydro-2H-pyran-4-ylmethyl)amino]phenyl}sulfonyl)-2-(1H-pyrrolo[2,3-b]pyridin-5-yloxy)benzamide]
5.74		CN1CCN(Nc2ccc(S(=O)(=O)NC(=O)c3ccc(N4CCN(CC5=C(c6ccc(Cl)cc6)CC(C)(C)CC5)CC4)cc3Oc3cnc4[nH]ccc4c3)cc2[N+](=O)[O-])CC1 [Compound 6, 4-(4-{[2-(4-chlorophenyl)-4,4-dimethylcyclohex-1-en-1-yl]methyl}piperazin-1-yl)-N-({4-[(4-methylpiperazin-1-yl)amino]-3-nitrophenyl}sulfonyl)-2-(1H-pyrrolo[2,3-b]pyridin-5-yloxy)benzamide]
5.71		CC1(C)CCC(CN2CCN(c3ccc(C(=O)NS(=O)(=O)c4ccc(N[C@H]5CC[C@H](N6CCOCC6)CC5)c([N+](=O)[O-])c4)c(Oc4cnc5[nH]ccc5c4)c3)CC2)=C(c2ccc(Cl)cc2)C1 [Compound 9, trans-4-(4-{[2-(4-chlorophenyl)-4,4-dimethylcyclohex-1-en-1-yl]methyl}piperazin-1-yl)-N-({4-[(4-morpholin-4-ylcyclohexyl)amino]-3-nitrophenyl}sulfonyl)-2-(1H-pyrrolo[2,3-b]pyridin-5-yloxy)benzamide]
6.35		CC1(C)CCC(CN2CCN(c3ccc(C(=O)NS(=O)(=O)c4ccc(NCC5CCOCC5)c([N+](=O)[O-])c4)c(Oc4ccc5[nH]ccc5c4)c3)CC2)=C(c2ccc(Cl)cc2)C1 [Compound 18, 4-(4-{[2-(4-chlorophenyl)-4,4-dimethylcyclohex-1-en-1-yl]methyl}piperazin-1-yl)-2-(1H-indol-5-yloxy)-N-({3-nitro-4-[(tetrahydro-2H-pyran-4-ylmethyl)amino]phenyl}sulfonyl)benzamide]
6.24		COCCNc1ccc(S(=O)(=O)NC(=O)c2ccc(N3CCN(CC4=C(c5ccc(Cl)cc5)CC(C)(C)CC4)CC3)cc2Oc2ccc3[nH]ccc3c2)cc1[N+](=O)[O-] [Compound 20, 4-(4-{[2-(4-chlorophenyl)-4,4-dimethylcyclohex-1-en-1-yl]methyl}piperazin-1-yl)-2-(1H-indol-5-yloxy)-N-({4-[(2-methoxyethyl)amino]-3-nitrophenyl}sulfonyl)benzamide]
5.86		O=C(NS(=O)(=O)c1ccc(NCC2CCOCC2)c([N+](=O)[O-])c1)c1ccc(N2CCN(Cc3ccccc3-c3ccc(Cl)cc3)CC2)cc1Oc1ccc2[nH]ccc2c1 [Compound 87, 4-{4-[(4′-chloro-1,1′-biphenyl-2-yl)methyl]piperazin-1-yl}-2-(1H-indol-5-yloxy)-N-({3-nitro-4-[(tetrahydro-2H-pyran-4-ylmethyl)amino]phenyl}sulfonyl)benzamide]
6.21		CC1(C)CCC(CN2CCN(c3ccc(C(=O)NS(=O)(=O)c4ccc(NC5CCN(C6CCOCC6)CC5)c([N+](=O)[O-])c4)c(Oc4ccc5[nH]ccc5c4)c3)CC2)=C(c2ccc(Cl)cc2)C1 [Compound 89, 4-(4-{[2-(4-chlorophenyl)-4,4-dimethylcyclohex-1-en-1-yl]methyl}piperazin-1-yl)-2-(1H-indol-5-yloxy)-N-({3-nitro-4-[(1-tetrahydro-2H-pyran-4-ylpiperidin-4-yl)amino]phenyl}sulfonyl)benzamide]
6.69		CN1CCC(Nc2ccc(S(=O)(=O)NC(=O)c3ccc(N4CCN(CC5=C(c6ccc(Cl)cc6)CC(C)(C)CC5)CC4)cc3Oc3ccc4[nH]ccc4c3)cc2[N+](=O)[O-])CC1 [Compound 90, 4-(4-{[2-(4-chlorophenyl)-4,4-dimethylcyclohex-1-en-1-yl]methyl}piperazin-1-yl)-2-(1H-indol-5-yloxy)-N-({4-[(1-methylpiperidin-4-yl)amino]-3-nitrophenyl}sulfonyl)benzamide]
6.59		CN1CCN(Nc2ccc(S(=O)(=O)NC(=O)c3ccc(N4CCN(CC5=C(c6ccc(Cl)cc6)CC(C)(C)CC5)CC4)cc3Oc3ccc4[nH]ccc4c3)cc2[N+](=O)[O-])CC1 [Compound 91, 4-(4-{[2-(4-chlorophenyl)-4,4-dimethylcyclohex-1-en-1-yl]methyl}piperazin-1-yl)-2-(1H-indol-5-yloxy)-N-({4-[(4-methylpiperazin-1-yl)amino]-3-nitrophenyl}sulfonyl)benzamide]
5.6		CC1(C)CCC(CN2CCN(c3ccc(C(=O)NS(=O)(=O)c4ccc(OCC5COCCO5)c([N+](=O)[O-])c4)c(Oc4ccc5[nH]ccc5c4)c3)CC2)=C(c2ccc(Cl)cc2)C1 (stereo not shown) [Compound 92, 4-(4-{[2-(4-chlorophenyl)-4,4-dimethylcyclohex-1-en-1-yl]methyl}piperazin-1-yl)-N-{[4-(1,4-dioxan-2-ylmethoxy)-3-nitrophenyl]sulfonyl}-2-(1H-indol-5-yloxy)benzamide]
5.57		CC1(C)CCC(CN2CCN(c3ccc(C(=O)NS(=O)(=O)c4cnc(OCC5(F)CCOCC5)c(C(F)(F)F)c4)c(Oc4cnc5[nH]ccc5c4)c3)CC2)=C(c2ccc(Cl)cc2)C1 [Compound 208, 4-(4-{[2-(4-chlorophenyl)-4,4-dimethylcyclohex-1-en-1-yl]methyl}piperazin-1-yl)-N-{[6-[(4-fluorotetrahydro-2H-pyran-4-yl)methoxy]-5-(trifluoromethyl)pyridin-3-yl]sulfonyl}-2-(1H-pyrrolo[2,3-b]pyridin-5-yloxy)benzamide]
5.92		CC1(C)CCC(CN2CCN(c3ccc(C(=O)NS(=O)(=O)c4ccc(NCC5CCC(F)(F)CC5)c([N+](=O)[O-])c4)c(Oc4cnc5[nH]ccc5c4)c3)CC2)=C(c2ccc(Cl)cc2)C1 [Compound 239, 4-(4-{[2-(4-chlorophenyl)-4,4-dimethylcyclohex-1-en-1-yl]methyl}piperazin-1-yl)-N-[(4-{[(4,4-difluorocyclohexyl)methyl]amino}-3-nitrophenyl)sulfonyl]-2-(1H-pyrrolo[2,3-b]pyridin-5-yloxy)benzamide]
5.51		CC1(C)CCC(CN2CCN(c3ccc(C(=O)NS(=O)(=O)c4cnc(NCC5(F)CCOCC5)c(Cl)c4)c(Oc4cnc5[nH]ccc5c4)c3)CC2)=C(c2ccc(Cl)cc2)C1 [Compound 242, N-[(5-chloro-6-{[(4-fluorotetrahydro-2H-pyran-4-yl)methyl]amino}pyridin-3-yl)sulfonyl]-4-(4-{[2-(4-chlorophenyl)-4,4-dimethylcyclohex-1-en-1-yl]methyl}piperazin-1-yl)-2-(1H-pyrrolo[2,3-b]pyridin-5-yloxy)benzamide]
5.59		CC1(C)CCC(CN2CCN(c3ccc(C(=O)NS(=O)(=O)c4ccc(NC[C@H]5CC[C@H](C#N)CC5)c([N+](=O)[O-])c4)c(Oc4cnc5[nH]ccc5c4)c3)CC2)=C(c2ccc(Cl)cc2)C1 [Compound 276, 4-(4-{[2-(4-chlorophenyl)-4,4-dimethylcyclohex-1-en-1-yl]methyl}piperazin-1-yl)-N-[(4-{[(trans-4-cyanocyclohexyl)methyl]amino}-3-nitrophenyl)sulfonyl]-2-(1H-pyrrolo[2,3-b]pyridin-5-yloxy)benzamide]
6.24		CC1(C)CCC(CN2CCN(c3ccc(C(=O)NS(=O)(=O)c4ccc(OC[C@H]5CC[C@H](N6CCOCC6)CC5)c(Cl)c4)c(Oc4cnc5[nH]ccc5c4)c3)CC2)=C(c2ccc(Cl)cc2)C1 [Compound 303, N-[(3-chloro-4-{[trans-4-(morpholin-4-yl)cyclohexyl]methoxy}phenyl)sulfonyl]-4-(4-{[2-(4-chlorophenyl)-4,4-dimethylcyclohex-1-en-1-yl]methyl}piperazin-1-yl)-2-(1H-pyrrolo[2,3-b]pyridin-5-yloxy)benzamide]
	5.48	CC1(C)CCC(CN2CCN(c3ccc(C(=O)NS(=O)(=O)c4ccc(NC[C@H]5CC[C@@](C)(O)CC5)c([N+](=O)[O-])c4)c(Oc4cnc5[nH]ccc5c4)c3)CC2)=C(c2ccc(Cl)cc2)C1 [Compound 337, 4-(4-{[2-(4-chlorophenyl)-4,4-dimethylcyclohex-1-en-1-yl]methyl}piperazin-1-yl)-N-[(4-{[(trans-4-hydroxy-4-methylcyclohexyl)methyl]amino}-3-nitrophenyl)sulfonyl]-2-(1H-pyrrolo[2,3-b]pyridin-5-yloxy)benzamide]
